Measurements reported in publication PMC6720848, “Synthesis of New Quinoline-Piperonal Hybrids as Potential Drugs against Alzheimer’s Disease” (International Journal of Molecular Sciences, 2019).

Legend:
Assay in all cases: biochemical
[1] = target: T1, EeAChE (AChE from Electrophorus electricus) (Electrophorus electricus, UniProt O42275); assay type: biochemical; conditions: modified Ellman's method, 37 °C, samples 1 to 100 µM, average ± standard deviation of three experiments
T1 construct: purchased Sigma-Aldrich (São Paulo, Brazil)
T1 sequence (O42275 24-633): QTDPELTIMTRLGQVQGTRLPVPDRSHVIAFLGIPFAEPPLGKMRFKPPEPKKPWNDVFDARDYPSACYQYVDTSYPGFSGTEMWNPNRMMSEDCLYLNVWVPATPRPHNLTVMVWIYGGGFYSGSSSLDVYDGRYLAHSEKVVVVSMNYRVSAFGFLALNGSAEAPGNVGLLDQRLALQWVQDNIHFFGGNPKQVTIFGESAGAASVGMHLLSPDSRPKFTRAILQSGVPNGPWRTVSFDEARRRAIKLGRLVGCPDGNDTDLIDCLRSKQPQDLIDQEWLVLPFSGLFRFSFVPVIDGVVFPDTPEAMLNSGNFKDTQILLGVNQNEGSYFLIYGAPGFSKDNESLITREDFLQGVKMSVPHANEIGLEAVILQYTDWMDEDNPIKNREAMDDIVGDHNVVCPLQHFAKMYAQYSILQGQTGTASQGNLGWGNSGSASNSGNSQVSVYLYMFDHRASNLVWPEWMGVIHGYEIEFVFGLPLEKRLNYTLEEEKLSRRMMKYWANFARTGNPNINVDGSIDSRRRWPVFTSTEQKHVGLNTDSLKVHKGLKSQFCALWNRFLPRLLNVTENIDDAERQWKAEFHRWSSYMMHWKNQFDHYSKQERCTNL
Method: (§1) In order to determine the anticholinesterase activity, we used Ellman’s method modified for a 96-wells plate. The velocities of substrate hydrolysis by AChE and BChE as function of sample concentration were evaluated for EeAChE and EqBChE. AChE, BChE and Ellman’s reagent (DTNB) were prepared in phosphate buffer (100 mM, pH 7.4). Acetylthiocholine iodide (ATCI), and butyrylthiocholine iodide (BTCI) were prepared in distilled water. Stock samples (100 mM) were prepared in dimethyl sulphoxide (DMSO) and appropriately diluted in distilled water to the desired concentrations immediately before use. All solutions were kept on ice during the experiment. All experiments were performed at 37 ± 1 °C.
(§2) The mixture was incubated for 10 min. Then, ATCI (0.5 mM) or BTCI (1.0 mM) was added to all wells and the plate was read immediately for 5 min in a spectrophotometer (Spectramax 340PC, Molecular Device®). The spontaneous and sample (100 µM) induced hydrolysis of the substrate were evaluated by replacing enzyme for buffer. […] The solvent (DMSO) was evaluated at the highest concentration (0.2%) used in the experiment. All concentrations refer to final concentrations. The samples were tested in at least 5 concentrations. […] The values of absorbance/min were calculated by the software Softmax Pro 6.4®. Inhibition values were calculated through non-linear regression with the software GraphPadPrism 5 (GraphPad software®, San Diego, CA, USA). […] EeAChE (EC.3.1.1.7), EqBChE (EC3.1.1.8), ATCI, BTCI and DTNB were purchased from Sigma-Aldrich (São Paulo, Brazil).

[2] = target: T2, EqBChE (butyrylcholinesterase from equine serum) (Equus caballus, UniProt P81908); assay type: biochemical; conditions: modified Ellman's method, 37 °C, samples 1 to 100 µM, average ± standard deviation of three experiments
T2 construct: butyrylcholinesterase from equine serum (EqBChE); purchased Sigma-Aldrich (São Paulo, Brazil); host or cells: equine serum
T2 sequence (P81908 whole entry): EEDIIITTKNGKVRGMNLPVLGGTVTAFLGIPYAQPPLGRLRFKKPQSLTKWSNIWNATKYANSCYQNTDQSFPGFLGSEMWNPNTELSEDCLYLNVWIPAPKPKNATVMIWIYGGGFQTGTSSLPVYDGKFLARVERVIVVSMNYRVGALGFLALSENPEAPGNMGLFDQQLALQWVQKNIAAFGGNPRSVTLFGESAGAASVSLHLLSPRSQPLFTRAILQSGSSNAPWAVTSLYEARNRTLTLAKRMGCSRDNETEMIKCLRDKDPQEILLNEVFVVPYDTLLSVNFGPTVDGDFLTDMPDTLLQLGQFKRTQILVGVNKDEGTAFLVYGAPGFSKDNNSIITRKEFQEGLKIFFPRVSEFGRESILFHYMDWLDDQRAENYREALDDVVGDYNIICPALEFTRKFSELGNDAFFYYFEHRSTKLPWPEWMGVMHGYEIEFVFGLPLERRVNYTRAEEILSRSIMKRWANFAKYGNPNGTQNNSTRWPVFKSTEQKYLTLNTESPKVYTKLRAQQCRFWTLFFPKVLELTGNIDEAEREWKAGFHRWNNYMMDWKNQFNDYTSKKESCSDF
Method: as §1, §2

[3] = target: T3, EeAChE (Electrophorus electricus, UniProt O42275); conditions: EeAChE 33 nM, ACh 5 mM, final concentration of the inhibitor 10 mM, 25 °C, triplicate; read-out: AChE inhibition (NMR test)
T3 construct: purchased Sigma-Aldrich (São Paulo, Brazil)
T3 sequence (O42275 24-633): as the sequence (O42275 24-633) above
Method: This sample was immediately inserted in the magnet for locking and shimming, allowing for the observation of the first ^1H spectra exactly 5 min after the addition of ACh. The next ^1H spectra were acquired at every 5 min with a single scan over 75 min. For testing the new compound, the same procedure was performed, including the addition of 5 μL of the potential EeAChE inhibitor (final concentration of the inhibitor in the NMR tube = 10 mM) before the addition of ACh. […] The values generated from the integration of the signals of ACh (consumed during the reaction) and Ac (produced during the reaction) are compared between each other and to the values of Ac produced in the presence and in the absence of the inhibitor. This enables the calculation of the percentages of inhibition, as described before [32]. All analyses were performed in triplicate.

## O=C(O)c1cc2cc3c(cc2[nH]c1=O)OCO3 [Compound 5, Acid 5,6-Diidro-6-oxo-1,3-dioxolo[4,6g] quiniline-7-carboxilic]
[1]
  IC50: 14.2 ± 1.15 µM

## CCOC(=O)c1cc2cc3c(cc2[nH]c1=O)OCO3 [Compound 7, Ethyl 5,6-Dehidro-6-oxo-[1,3] dioxolano [4,5-g] quinoline-7-carboxilate]
[1]
  IC50: 62.8 ± 2.02 µM

## COC(=O)c1cc2cc3c(cc2nc1C)OCO3 [Compound 4, Methyl 6-Methyl-[1,3]dioxolo[4,5-g]quinone-7-carboxilate]
[1]
  IC50: > 100 µM
  IC50 EeAChE: not able to inhibit
[2]
  IC50 EqBChE: not able to inhibit

## O=c1[nH]c(=O)c2cc3cc4c(cc3nc2[nH]1)OCO4 [Compound 6, 1,3-Dioxolo [4,5-g] pirimido [4,5-b] quinoline-7,9 (6H,8H)-dione]
[1]
  IC50: 32.1 ± 3.53 µM

## CC1(C)CC(=O)c2cc3cc4c(cc3nc2C1)OCO4 [Compound 3, 7,8-Dihydro-7,7-dimethyl-1,3-dioxolo[4,5-b]acridin-9(6h)-one]
[1]
  IC50: 51.5 ± 2.47 µM

## CC1(C)CC(=NNC(=N)N)c2cc3cc4c(cc3nc2C1)OCO4 [Compound 8, Guanylhydrazone of 7,7-Dimethyl-7,8-dihydro-[1,3]dioxolo[4,5-b]acridin-9(6h)-one]
[1]
  IC50: 8.5 ± 0.39 µM
[2]
  IC50: 15.2 ± 0.75 µM
[3]
  inhibition at 10000 µM: 73.9 ± 6.26%
